The values that follow are results of earlier work, collected in patent EP4046639A1, “PREVENTION OF PULMONARY VASCULAR LEAK IN COVID-19” (priority 2021, dated 2022).

Read-outs that look alike come from different tables or passages of the source.

In the data set the test system is Covid-19.

With `C[C@@H]1C[C@H]2[C@@H]3CCC4=CC(=O)C=C[C@]4(C)[C@@]3(F)[C@@H](O)C[C@]2(C)[C@@]1(O)C(=O)CO` [Dexamethason], the Covid-19 mortality (hospitalized patients, reduced from 24) is on record as 20% and the Covid-19 mortality (patients in the intensive care unit (ICU), reduced from 40) is given as 30%.
